Experimental data: US20050169914A1, “Novel functions for decay accelerating factor (DAF) in inflammation” (priority 2003, published 2005)
Where no end group is shown, it is not given here. The star is where a group is joined. Biotin = O=C1N[C@H]2[C@H](CS[C@H]2CCCCC(=O)*)N1

What was measured:
CD55 mRNA expression = experiment: Hypoxia-induced CD55 mRNA expression in Caco2 cells with transcriptional inhibitor; assay type: cell-based, human; conditions: DRB 10 μM
Procedure: First, it was determined whether hypoxia-induced CD55 results from increased transcriptional activity. Caco2 cells were subjected to hypoxia in the presence or absence of the transcriptional inhibitor 5,6-dichlorobenzimidazole riboside (DRB, 10 μM) and assessed for changes in CD55 mRNA expression. […] Consequently, increases in CD55 by hypoxia required new mRNA synthesis.

[1] = system: PMN transmigration across epithelial monolayer; experiment: Kinetic PMN transmigration assay with DAF mimetic peptides; assay type: cell-based, human; conditions: for rank order of potency in kinetic PMN transmigration assay: compared to no peptide controls
Procedure: Transmigration assay. PMN transmigration assays were performed as previously described (Nicholson-Weller et al., 1994, J. Lab. Clin. Med. 123: 485-91). All epithelial experiments were performed in the physiologically-relevant basolateral-to-apical direction (i.e. inverted monolayers), unless otherwise indicated, and all HMVEC transmigration studies were performed in the apical-to-basolateral direction. Briefly, PMN (1×10^6) were added to the upper chambers of transwell inserts in which T84, KB or Caco2 cell monolayers, as indicated, were plated on the opposing side. A chemotactic gradient was established by adding n-formyl-methionyl-leucyl-phenylalanine (fMLP) to the lower chambers (1 μM for Caco2 and T84 epithelia and 10 nM for KB cells and HMVEC). PMN transmigration was carried out at 37° C. for 1 hour with KB and HMVEC monolayers and 2 hrs for T84 monolayers. Transmigrated PMN were quantified by assaying for the PMN azurophilic marker myeloperoxidase (MPO), as previously described (Lisanti et al., 1990, J. Memb. Biol. 113: 155-167). Briefly, transmigrated PMN were lysed by the addition of Triton X-100 to a final concentration 0.5%. The samples were acidified with citrate buffer (final concentration 100 mM; pH 4.2). An aliquot of sample (70 μl) was added to an equal volume of ABTS solution (1 mM ABTS (2.2′-Azino-bis(3-ethylbenzo-thiazoline-6-sulfonic acid), 0.03% H2O2, 100 mM sodium citrate buffer; pH 4.2) in a 96-well plate. The resulting color was quantitated on a plate reader at 405 nm. For kinetic transmigration and post-transmigration adhesion assays, monolayers were removed at the desired time point and placed in a new 24-well plate with HBSS and spun at 50×g for 5 min to dislodge PMN adherent to the monolayer (Liu et al., 2001, J. Biol. Chem. 276: 40156-66). PMN were quantified by MPO assay as stated above. Where indicated, polyclonal DAF antisera (a kind gift from Dr. B. Paul Morgan, University of Wales) or control polyclonal platelet-endothelial cell adhesion (PE-CAM, a kind gift from Dr. Joyce Bischoff, Children's Hospital and Harvard Medical School) antisera were used to assess transmigration.
Phage panning of OE-1. The OE-1 binding epitope was analyzed using phage display (Burritt et al., 1998, J. Biol. Chem. 273:24847-52). Briefly, sepharose-coupled OE-1 was incubated with 20-μL aliquots of the random 9-mer LL9 phage library (˜5×10^10 phage) in 1 mL HBSS containing 0.1% bovine serum albumin (phage buffer) for 2 hours at 4° C. or for 1 hour at 20° C. in a 1.5-ml microcentrifuge tube as described previously (Mazzucchelli et al., 1999, Blood 93: 1738-48). Antibody complexes were then washed five times with phage buffer and bound phage were eluted for 5 minutes in 2 mL of 0.1M glycine (pH 2.2) followed by addition of phage buffer containing 0.5% Tween 20 to the remaining cell pellet. After neutralization with Tris buffer pH 8.1, the titer of phage was determined in each fraction by plaque assay according to standard procedures. Phage elutes were then amplified in “starved” K91 E. coli on solid LB agar containing 75 μg/mL kanamycin, purified by precipitation with polyethylene glycol, and resuspended in 600 μL NaCl/HEPES buffer. An aliquot (20 μL) of purified phage was subsequently re-applied to a new aliquot of sepharose-coupled OE-1 for a total of three affinity purification and two amplification steps. Individual phage clones were then isolated, amplified, and the random peptide sequences were deduced after sequencing the unique nucleotide region of the pIII protein. As a control for OE-1-specific selection, parallel phage affinity purification steps were carried out in a 1.5-mL microcentrifuge tube in the absence of OE-1, and a sample of the recovered phage was analyzed by sequencing of the DNA insert. […]

surface of intact PMN = experiment: Binding of biotinylated peptide to intact PMN (rhodamine-streptavidin fluorescence); design: species or system human; conditions: peptide 10 μg/ml, 4° C., 1 hr
Procedure: In subsets of experiments, peptides were biotinylated (sulfo-NHS-Biotin, Pierce, Rockford, Ill.), purified by reversed phase HPLC, and tested for binding to PMN. Briefly, PMN (10^7 PMN in 1 ml) were incubated with biotinylated peptide DAF peptide or control peptide (each at 10 μg/ml) at 4° C. for 1 hr. PMN were washed three times in HBSS, and incubated with rhodamine-labeled steptavidin (Roche Diagnostics, Indianapolis, Ind.). Samples were aliquoted on a 96 well plate and fluorescence intensity (excitation, 550 nm; emission, 580 nm), expressed as relative fluorescence units (RFU) was measured on a fluorescent plate reader (Cytofluor™2300, Millipore Inc., Bedford, Mass.).

[2] = system: OE-1 mAb binding to denatured protein; experiment: Peptide blocking of OE-1 binding, western blot of T84 epithelial lysates; conditions: concentration-dependent
Procedure: Immunoblotting experiments. Indicated cells were grown to confluency on 100 mm plastic Petri dishes. The monolayers were lysed for 10 min in 1 ml lysis buffer (150 mM NaCl, 25 mM Tris, pH 8.0, 5 mM EDTA, 2% n-octylglucoside, and 10% mammalian tissue protease inhibitor cocktail; Sigma, St. Louis, Mo.), scraped and collected into microfuge tubes. After spinning at 14,000×g to remove cell debris, the pellet was discarded. Proteins were solublized in non-reducing Laemmli sample buffer and heated to 100° C. for 5 minutes. Samples were resolved on a 10% polyacrylamide gel and transferred to nitrocellulose membranes. The membranes were blocked 1 hr at room temperature in PBS supplemented with 0.2% Tween-20 (PBS-T) and 4% BSA. […] The wash was repeated and proteins were detected by enhanced chemiluminescence.
Phage panning of OE-1. The OE-1 binding epitope was analyzed using phage display (Burritt et al., 1998, J. Biol. Chem. 273:24847-52). […] After neutralization with Tris buffer pH 8.1, the titer of phage was determined in each fraction by plaque assay according to standard procedures. […] As a control for OE-1-specific selection, parallel phage affinity purification steps were carried out in a 1.5-mL microcentrifuge tube in the absence of OE-1, and a sample of the recovered phage was analyzed by sequencing of the DNA insert. […]

[3] = system: OE-1 mAb binding to intact epithelial cell surface protein; experiment: Peptide blocking of OE-1 binding, cell surface ELISA on intact T84 cells; conditions: concentration-dependent
[4] = system: PMN transmigration across Caco2 monolayers; experiment: Kinetic PMN transmigration across DAF-depleted Caco2 monolayers; assay type: cell-based, human
Procedure: Transmigration assay. PMN transmigration assays were performed as previously described (Nicholson-Weller et al., 1994, J. Lab. Clin. Med. 123: 485-91). All epithelial experiments were performed in the physiologically-relevant basolateral-to-apical direction (i.e. inverted monolayers), unless otherwise indicated, and all HMVEC transmigration studies were performed in the apical-to-basolateral direction. Briefly, PMN (1×10^6) were added to the upper chambers of transwell inserts in which T84, KB or Caco2 cell monolayers, as indicated, were plated on the opposing side. […] Transmigrated PMN were quantified by assaying for the PMN azurophilic marker myeloperoxidase (MPO), as previously described (Lisanti et al., 1990, J. Memb. Biol. 113: 155-167). […] An aliquot of sample (70 μl) was added to an equal volume of ABTS solution (1 mM ABTS (2.2′-Azino-bis(3-ethylbenzo-thiazoline-6-sulfonic acid), 0.03% H2O2, 100 mM sodium citrate buffer; pH 4.2) in a 96-well plate. The resulting color was quantitated on a plate reader at 405 nm. For kinetic transmigration and post-transmigration adhesion assays, monolayers were removed at the desired time point and placed in a new 24-well plate with HBSS and spun at 50×g for 5 min to dislodge PMN adherent to the monolayer (Liu et al., 2001, J. Biol. Chem. 276: 40156-66). PMN were quantified by MPO assay as stated above. […]

surface expressed DAF = experiment: DAF suppression in Caco2 cells (immunoprecipitation of surface biotinylated protein); assay type: cell-based, human; conditions: Caco2, relative to oligonucleotide controls, n=3
Procedure: DAF suppression studies. Caco2 cells were chosen for these experiments because they are more easily transfected than T84 cells. Confluent Caco2 monolayers were dislodged from T175 flasks with trypsin. Cells were washed once in serum-free DMEM. To 100 μl serum free media, 10 μl DAF siRNA ribonucleotide (20 μM each of sense 5′-[…]dTdT-3′ (SEQ ID NO: 31) and antisense 3′-dTd[…]-5′ (SEQ ID NO: 32), synthesized by Xeragon, Inc., Germantown, Md.) or 10 μl phosphorothioate derivatives of DAF antisense oligonucleotide (20 μM; 5′-[…]-3′ (SEQ ID NO: 33), synthesized by Oligo's Etc., Wilsonville, Oreg.) was added. In both cases, a control oligonucleotide (5′-ATG GAG GGC GCC GGC-3′, SEQ ID NO: 34) was used in parallel. To these solutions 10 μl Superfect transfection reagent (Qiagen, Valencia, Calif.) was added. The tubes were vortexed and incubated at room temperature for 10 min to allow transfection complexes formation. Following this incubation, 400 μl of serum containing media was added to the complexes, followed by 800 μl of cell suspension. […]
As a third approach, antisense oligonucleotides and siRNA technologies were utilized to diminish surface expressed DAF and examined the kinetics of PMN migration across such monolayers of epithelia. […] In panels B and C, the influence of siRNA (diamonds), antisense oligonucleotide (squares) on the kinetics of transmigration was assessed. […]

OC[C@H]1O[C@@H](n2cnc3cc(Cl)c(Cl)cc32)[C@H](O)[C@@H]1O [DRB, 5,6-dichlorobenzimidazole riboside]
decrease in CD55 inducibility by hypoxia (CD55 mRNA expression): 87±7%

AVAHWYRSG [Peptide 1]
rank order of potency in kinetic PMN transmigration assay ([1]; 1 mM final concentration): Wild-type>Peptide 2=Peptide 1>Peptide 3

Biotin-EVEHWYRSG
fluorescence intensity (binding to surface of intact PMN) (surface of intact PMN): 2,188±383 RFU

EVEHAYRSG [Peptide 2]
rank order of potency in kinetic PMN transmigration assay ([1]; 1 mM final concentration): Wild-type>Peptide 2=Peptide 1>Peptide 3

EVEHWARSG [Peptide 3]
rank order of potency in kinetic PMN transmigration assay ([1]; 1 mM final concentration): Wild-type>Peptide 2=Peptide 1>Peptide 3

EVEHWYASG [Peptide 4]
effect on PMN transmigration relative to no peptide controls ([1]; 1 mM final concentration): appeared to enhance PMN transmigration

EVEHWYRSG
blocking of OE-1 binding to denatured protein [2]: blocked OE-1 binding
rank order of potency in kinetic PMN transmigration assay ([1]; 1 mM final concentration): Wild-type>Peptide 2=Peptide 1>Peptide 3
apical accumulation of PMN ([1]; PMN and epithelial pre-exposure to increasing peptide concentrations, p<0.025): increased apical accumulation of PMN
PMN transmigration ([1]; PMN and epithelial pre-exposure to increasing peptide concentrations, p<0.05): diminished PMN transmigration
blocking of OE-1 binding to intact epithelial cell surface protein [3]: blocked OE-1 binding

SPLAQAVRSSSR [scrambled peptide, scrambled control peptide, reference compound]
blocking of OE-1 binding to intact epithelial cell surface protein [3]: but not a scrambled peptide

siRNA: DAF siRNA ribonucleotide, sense 5′-AAUUCCUGGCGAGAAGGACUCdTdT-3′, antisense 3′-dTdTUUAAGGACCGCUCUUCCUGAG-5′ (sense AAUUCCUGGCGAGAAGGACUCNN; antisense NNUUAAGGACCGCUCUUCCUGAG; chemistry not fully specified; one strand is listed 3' to 5')
PMN transmigration across treated cells ([4]; Caco2, relative to mock or oligonucleotide control, p<0.025): significantly diminished
apical PMN in DAF-depleted epithelia ([4]; Caco2, p<0.05 by ANOVA): significant increase over time
decrease in surface expressed DAF (surface expressed DAF): 63±12%
